According to patent US4515941A, “23-Demycinosyldesmycosin derivatives” (Toyo Jozo Kabushiki Kaisha, priority 1982, dated 1985):
Values after ≈ are worked out from the molar mass of the structure shown. Read-outs that look alike come from different tables or passages of the source.

What was measured:
Format in all cases: cell-based
[1] = system: Staphylococcus aureus ATCC 6538P; experiment: MIC, Staphylococcus aureus ATCC 6538P; details: ATCC6538P, read-out: MIC
[2] = system: Staphylococcus aureus MS353; experiment: MIC, Staphylococcus aureus MS353; details: Staphylococcus aureus MS353; read-out: MIC
[3] = system: Staphylococcus aureus MS353 A0; experiment: MIC, Staphylococcus aureus MS353 A0 (macrolide resistant); details: MS353A0, macrolide resistant bacteria A group
Description: (§1) *macrolide resistant bacteria A group (clinical isolates of erythromycin,
(§2) oleandomycin and 16membered macrolide antibiotic resistant strains.)

[4] = system: Staphylococcus epidermis sp-al-1; experiment: MIC, Staphylococcus epidermis sp-al-1; details: SPAL1; Staphylococcus epidermis sp-al-1; read-out: MIC
[5] = system: Streptococcus pyogenes N.Y.5; experiment: MIC, Streptococcus pyogenes N.Y.5; details: read-out: MIC
[6] = system: Streptococcus faecalis 1501; experiment: MIC, Streptococcus faecalis 1501
[7] = system: Streptococcus agalactiae 1020; experiment: MIC, Streptococcus agalactiae 1020; details: Streptococcus agalactiae 1020; read-out: MIC
[8] = system: Sarcina lutea ATCC 9341; experiment: MIC, Sarcina lutea ATCC 9341; details: Micrococcus luteus, ATCC9341
[9] = system: Corynebacterium diptheriae P.Y.8; experiment: MIC, Corynebacterium diptheriae P.Y.8
[10] = system: Bacillus subtilis ATC 6633; experiment: MIC, Bacillus subtilis ATC 6633
[11] = system: Escherichia coli NIHJ-JC2; experiment: MIC, Escherichia coli NIHJ-JC2; details: NIHJJC2
[12] = system: Klebsiella pneumoniae ATCC 10031; experiment: MIC, Klebsiella pneumoniae ATCC 10031
[13] = system: Salmonella typhosa H901; experiment: MIC, Salmonella typhosa H901
[14] = system: Shigella sonnei E33; experiment: MIC, Shigella sonnei E33
[15] = system: Proteus vulgaris OX19; experiment: MIC, Proteus vulgaris OX19
[16] = system: Pseudomonas aeruginosa IAM 1095; experiment: MIC, Pseudomonas aeruginosa IAM 1095; details: IAM1095
[17] = system: Streptococcus pyogenes 1022; experiment: MIC, Streptococcus pyogenes 1022 (macrolide resistant); details: macrolide resistant bacteria A group
Description: as §1, §2

[18] = system: Staphylococcus aureus 0127; experiment: MIC, Staphylococcus aureus 0127 (macrolide resistant); details: Staphylococcus aureus 0127; macrolide resistant bacteria A group; read-out: MIC
Description: as §1, §2

[19] = system: Staphylococcus aureus MS353 C36; experiment: MIC, Staphylococcus aureus MS353 C36; details: MS353C36
[20] = system: Micrococcus flavus ATCC 10240; experiment: MIC, Micrococcus flavus ATCC 10240; details: Micrococcus flavus, ATCC10240
[21] = system: Escherichia coli B; experiment: MIC, Escherichia coli B
[22] = system: Salmonella enteritidis Gaertner; experiment: MIC, Salmonella enteritidis Gaertner; details: Salmonella enterica, ENTERITIDIS
[23] = system: Shigella flexineri type 3a; experiment: MIC, Shigella flexineri type 3a; details: TYPE3A
[24] = system: Serratia marcescens; experiment: MIC, Serratia marcescens
[25] = Enterococcus faecalis, Streptococcus faecalis 1501, read-out: MIC
[26] = Corynebacterium diptheriae P.Y.8, read-out: MIC
[27] = ATC6633, Bacillus subtilis ATC 6633, read-out: MIC
[28] = ATCC10031, Klebsiella pneumoniae ATCC 10031, read-out: MIC
[29] = Proteus vulgaris OX19, read-out: MIC
[30] = Pseudomonas aeruginosa IAM 1095, read-out: MIC
[31] = Streptococcus pyogenes 1022, read-out: MIC

| SMILES | MIC [1] | MIC [2] | MIC [3] | MIC [4] | MIC [5] | MIC [6, 25] | MIC [7] | MIC [8] | MIC [9, 26] | MIC [10, 27] | MIC [11] | MIC [12, 28] | MIC ([13]; Salmonella enterica, TYPHOSA) | MIC [14] | MIC [15, 29] | MIC [16, 30] | MIC [17, 31] | other results |
| --- | --- | --- | --- | --- | --- | --- | --- | --- | --- | --- | --- | --- | --- | --- | --- | --- | --- | --- |
| CCC1OC(=O)CC(O)C(C)C(OC2OC(C)C(O)C(N(C)C)C2O)C(CC=O)CC(C)C(=O)C=CC(C)=CC1CSCc1ccccc1 (stereo not drawn) [SCH2 C6 H5, 23-benzylthio-23-demycinosyl-23-deoxydesmycosin] | ≤ 0.05 mg/L | ≤ 0.05 mg/L | 50 mg/L (≈ 71 µM) | ≤ 0.05 mg/L | ≤ 0.05 mg/L | ≤ 0.05 mg/L | ≤ 0.05 mg/L | ≤ 0.05 mg/L | ≤ 0.05 mg/L | 0.1 mg/L (≈ 0.142 µM) | 50 mg/L (≈ 71 µM) | 1.6 mg/L (≈ 2.27 µM) | 50 mg/L (≈ 71 µM) | 25 mg/L (≈ 35.5 µM) | 6.3 mg/L (≈ 8.95 µM) | 100 mg/L (≈ 142 µM) |  |  |
| CCC1OC(=O)CC(O)C(C)C(OC2OC(C)C(O)C(N(C)C)C2O)C(CC=O)CC(C)C(=O)C=CC(C)=CC1CSC(C)c1ccccc1 (stereo not drawn) [23-(1-phenylethyl)thio-23-demycinosyl-23-deoxydesmycosin] | 0.2 mg/L (≈ 0.279 µM) | 0.2 mg/L (≈ 0.279 µM) | 25 mg/L (≈ 34.8 µM) | ≤ 0.05 mg/L | ≤ 0.05 mg/L | 0.2 mg/L (≈ 0.279 µM) | 0.1 mg/L (≈ 0.139 µM) | 0.05 mg/L (≈ 0.0696 µM) |  | 0.2 mg/L (≈ 0.279 µM) | 50 mg/L (≈ 69.6 µM) | 3.1 mg/L (≈ 4.32 µM) | 100 mg/L (≈ 139 µM) | 50 mg/L (≈ 69.6 µM) | 12.5 mg/L (≈ 17.4 µM) | > 100 mg/L | 25 mg/L (≈ 34.8 µM) |  |
| CCC1OC(=O)CC(O)C(C)C(OC2OC(C)C(O)C(N(C)C)C2O)C(CC=O)CC(C)C(=O)C=CC(C)=CC1COCc1ccccc1 (stereo not drawn) [OCH 2 C6 H5, 23-O-benzyl-23-demycinosyldesmycosin] | ≤ 0.05 mg/L | ≤ 0.05 mg/L | 50 mg/L (≈ 72.7 µM) | ≤ 0.05 mg/L | ≤ 0.05 mg/L | 0.05 mg/L (≈ 0.0727 µM) | ≤ 0.05 mg/L | ≤ 0.05 mg/L | ≤ 0.05 mg/L | ≤ 0.05 mg/L | 25 mg/L (≈ 36.3 µM) | 6.3 mg/L (≈ 9.16 µM) | 100 mg/L (≈ 145 µM) | 25 mg/L (≈ 36.3 µM) | 3.1 mg/L (≈ 4.51 µM) | 50 mg/L (≈ 72.7 µM) | 3.1 mg/L (≈ 4.51 µM) | MIC [18]: 100 mg/L (≈ 145 µM) |
| CC[C@H]1OC(=O)[C@H](C)[C@@H](O[C@H]2C[C@@](C)(OC)[C@@H](O)[C@H](C)O2)[C@H](C)[C@@H](O[C@@H]2O[C@H](C)C[C@H](N(C)C)[C@H]2O)[C@](C)(O)C[C@@H](C)C(=O)[C@H](C)[C@@H](O)[C@]1(C)O [EM, erythromycin, reference compound] |  |  |  |  |  |  |  | ≤ 0.05 mg/L |  |  | 100 mg/L (≈ 136 µM) |  | 100 mg/L (≈ 136 µM) | 100 mg/L (≈ 136 µM) |  |  |  | MIC [19]: 0.4 mg/L (≈ 0.545 µM); MIC ([6]; Enterococcus faecalis, 1501, Streptococcus faecalis 1501): 0.2 mg/L (≈ 0.273 µM); MIC [20]: 0.1 mg/L (≈ 0.136 µM); MIC ([9]; Corynebacterium, P.Y.8): ≤ 0.05 mg/L; MIC ([10]; Bacillus subtilis, ATC6633, Bacillus subtilis ATC 6633): 0.1 mg/L (≈ 0.136 µM); MIC [21]: > 100 mg/L; MIC ([12]; Klebsiella pneumoniae, ATCC10031, Klebsiella pneumoniae ATCC 10031): 6.3 mg/L (≈ 8.58 µM); MIC [13]: 50 mg/L (≈ 68.1 µM); MIC [22]: 100 mg/L (≈ 136 µM); MIC [23]: 12.5 mg/L (≈ 17 µM); MIC ([15]; Proteus vulgaris OX19): 25 mg/L (≈ 34.1 µM); MIC ([15]; Proteus vulgaris, OX19, Proteus vulgaris OX19): 50 mg/L (≈ 68.1 µM); MIC [24]: 100 mg/L (≈ 136 µM); MIC ([16]; Pseudomonas aeruginosa): 100 mg/L (≈ 136 µM) |
| CCC1OC(=O)CC(O)C(C)C(OC2OC(C)C(O)C(N(C)C)C2O)C(CC=O)CC(C)C(=O)C=CC(C)=CC1CSCCc1ccccc1 (stereo not drawn) [S(CH2)2 C6 H5, 23-(2-phenylethyl)thio-23-demycinosyl-23-deoxydesmycosin] | 0.1 mg/L (≈ 0.139 µM) | 0.1 mg/L (≈ 0.139 µM) | 50 mg/L (≈ 69.6 µM) | ≤ 0.05 mg/L | ≤ 0.05 mg/L | 0.1 mg/L (≈ 0.139 µM) | ≤ 0.05 mg/L | ≤ 0.05 mg/L |  | 0.1 mg/L (≈ 0.139 µM) | 50 mg/L (≈ 69.6 µM) | 3.1 mg/L (≈ 4.32 µM) | > 100 mg/L | 25 mg/L (≈ 34.8 µM) | 12.5 mg/L (≈ 17.4 µM) | > 100 mg/L |  | MIC ([17]; Streptococcus pyogenes, 1022, Streptococcus pyogenes 1022): 25 mg/L (≈ 34.8 µM) |
